The values below are quoted from earlier work in article PMC2615486 (Chemistry & biology, 2008).

One series has as its system avidin. The settings on record: ref Green, N.M. 1970.
The conditions of series [1]: ref Hyre, D.E., Le Trong, I., et al. 2006.

Take `C[C@@H]1NC(=O)N[C@@H]1CCCCCC(=O)O` [desthiobiotin]: the “dissociation constant for avidin, weaker than that of biotin” value in the series on avidin is listed as 10^2–10^4 fold. As for “streptavidin: wild-type streptavidin as described in the literature”, in series [1], the “association rate for biotin” value was ~ 1 × 10^8 M^−1s^−1.
